In patent publication US20230293438A1, “INJECTABLE DRUG-RELEASING MICROPOROUS ANNEALED PARTICLE SCAFFOLDS FOR TREATING MYOCARDIAL INFARCTION” (THE REGENTS OF THE UNIVERSITY OF CALIFORNIA, priority 2020, published 2023):

Key:
[1] = test system: neonatal rat cardiomyocytes; assay: Cardiomyocyte viability (live/dead assay); format: cell-based; details: 120 h, after 5 days in vitro culture, drugs in medium (20 µM), control cells 25 %
Experimental: (§1) Cell isolation: Primary neonatal rat cardiomyocytes and fibroblasts were isolated from the hearts of 1-2 day old Sprague-Dawley rat pups as described previously with minor modifications. Briefly, the cardiac tissue was minced and digested with 80 units/mL collagenase II (Worthington) and 0.8 mg/mL pancreatin (Sigma) at 37° C. in a water bath. Neonatal calf serum (NCS) was applied to inactivate enzymatic activity in the digested cell mixture. The cell solution was filtered through 100 µm mesh and centrifuged at 2200 rpm for 3 minutes. The cell pellets were suspended in 1 mL NCS and further separated by Percoll density gradient centrifugation. […]
Cell culture and evaluation of drug effects in vitro: The drug effects on cardiomyocyte viability and proliferation were evaluated. Isolated cardiomyocytes were calculated and seeded on 0.1% gelatin-coated twenty-four well tissue culture plate with a density of 20, 000 cells/cm^2, and cultured at 37° C. in a humidified, 5% CO2 incubator overnight in DMEM/Medium 199 (4/1) containing 10% FBS, 1% NEAAs and 1% P/S. The next day, the culture medium was replaced by fresh medium containing 20 µM F, R or their combination. […] A live/dead kit (Invitrogen) was for cell viability assay, and images were taken using inverted microscope fluorescence microscopy (Zeiss Axio Observer Z1) to determine the cell numbers and the percentage of dead cells. […]

cardiac fibroblasts = assay: Cardiac fibroblast proliferation (MTS assay); format: cell-based, rat; details: drugs in medium
Experimental: Cell isolation: Primary neonatal rat cardiomyocytes and fibroblasts were isolated from the hearts of 1-2 day old Sprague-Dawley rat pups as described previously with minor modifications. Briefly, the cardiac tissue was minced and digested with 80 units/mL collagenase II (Worthington) and 0.8 mg/mL pancreatin (Sigma) at 37° C. in a water bath. Neonatal calf serum (NCS) was applied to inactivate enzymatic activity in the digested cell mixture. The cell solution was filtered through 100 µm mesh and centrifuged at 2200 rpm for 3 minutes. The cell pellets were suspended in 1 mL NCS and further separated by Percoll density gradient centrifugation. A two-layer density gradient was formed consisting of 40.5% Percoll (GE17-0891-01, Sigma) solution in the top layer and 58.5% Percoll solution in the bottom layer. The cell suspension was layered on top of the gradient and centrifuged at 3000 rpm at room temperature for 30 minutes. […] The drug effects on cardiac fibroblast proliferation and myo-differentiation were evaluated. Fibroblasts were seeded on twenty-four well tissue culture plate with a density of 5000 cells/cm^2 and cultured overnight in DMEM containing 10% FBS and 1% P/S. On the next day, the culture medium was replaced by the fresh medium containing F and R at the determined concentrations and combinations, and the medium was changed every other day. […]

[2] = test system: Human umbilical vein endothelial cells (HUVECs); assay: Endothelial cell proliferation (MTS assay); format: cell-based
Experimental: The drug effects on EC proliferation and network formation were evaluated. Human umbilical vein endothelial cells (HUVECs) were seeded on 0.1% gelatin-coated 24-well plates with a density of 5, 000 cells/cm^2 and cultured overnight in DMEM containing 10% FBS and 1% P/S. On the next day, the culture medium was replaced by the fresh medium containing F and R at the determined concentrations and combinations, and the medium was changed every other day. MTS cell proliferation assay was performed on day 1, 3 and 5. In addition, the ECs network formation was examined on growth factor reduced Matrigel according to the manufacturer's instructions (cat# CB-40230C, Thermo Fisher Scientific). Briefly, 24-well plates were coated with Matrigel. ECs were digested and plated onto a layer of Matrigel at a density of 3×10^5 cells/well in M199 medium containing 1% FBS and […], with the addition of F and R. Vascular endothelial growth factor (VEGF, 20 ng/mL) was used as a positive control. After 16 hours of culture, cells were stained with calcein acetoxymethyl ester (calcein-AM) and observed with an inverted fluorescent microscope. The number of tubular structures, junctions and meshes were analyzed by Image J with the Angiogenesis Analyzer plugin (n = 4-6 per group).

[3] = test system: Human umbilical vein endothelial cells (HUVECs); assay: Endothelial cell tubule network formation on Matrigel; format: cell-based; details: drugs in medium, 16 hours
Experimental: The drug effects on EC proliferation and network formation were evaluated. Human umbilical vein endothelial cells (HUVECs) were seeded on 0.1% gelatin-coated 24-well plates with a density of 5, 000 cells/cm^2 and cultured overnight in DMEM containing 10% FBS and 1% P/S. On the next day, the culture medium was replaced by the fresh medium containing F and R at the determined concentrations and combinations, and the medium was changed every other day. MTS cell proliferation assay was performed on day 1, 3 and 5. In addition, the ECs network formation was examined on growth factor reduced Matrigel according to the manufacturer’s instructions (cat# CB-40230C, Thermo Fisher Scientific). Briefly, 24-well plates were coated with Matrigel. ECs were digested and plated onto a layer of Matrigel at a density of 3×10^5 cells/well in M199 medium containing 1% FBS and 1% P/S, with the addition of F and R. Vascular endothelial growth factor (VEGF, 20 ng/mL) was used as a positive control. After 16 hours of culture, cells were stained with calcein acetoxymethyl ester (calcein-AM) and observed with an inverted fluorescent microscope. The number of tubular structures, junctions and meshes were analyzed by Image J with the Angiogenesis Analyzer plugin (n = 4-6 per group).
(§2) The effects of drugs released from FR/NPs and FR/NPs-µGel particles 12 were evaluated using the methods mentioned above. […]

[4] = test system: neonatal cardiac fibroblasts; assay: Cardiac fibroblast myo-differentiation (α-SMA / F-actin staining); format: cell-based, rat; details: drugs in medium, day 5
Experimental: as §1, with “centrifugation. A two-layer density gradient was formed consisting of 40.5% Percoll (GE17-0891-01, Sigma) solution in the top layer and 58.5% Percoll solution in the bottom layer.” for “centrifugation.”
The drug effects on cardiac fibroblast proliferation and myo-differentiation were evaluated. Fibroblasts were seeded on twenty-four well tissue culture plate with a density of 5000 cells/cm^2 and cultured overnight in DMEM containing 10% FBS and 1% P/S. On the next day, the culture medium was replaced by the fresh medium containing F and R at the determined concentrations and combinations, and the medium was changed every other day. […]
as §2

neonatal cardiomyocytes = assay: Cardiomyocyte proliferation (EdU assay); format: cell-based, rat; details: drugs in medium
Experimental: Cell isolation: Primary neonatal rat cardiomyocytes and fibroblasts were isolated from the hearts of 1-2 day old Sprague-Dawley rat pups as described previously with minor modifications. Briefly, the cardiac tissue was minced and digested with 80 units/mL collagenase II (Worthington) and 0.8 mg/mL pancreatin (Sigma) at 37° C. in a water bath. Neonatal calf serum (NCS) was applied to inactivate enzymatic activity in the digested cell mixture. The cell solution was filtered through 100 µm mesh and centrifuged at 2200 rpm for 3 minutes. The cell pellets were suspended in 1 mL NCS and further separated by Percoll density gradient centrifugation. […] Cell culture and evaluation of drug effects in vitro: The drug effects on cardiomyocyte viability and proliferation were evaluated. Isolated cardiomyocytes were calculated and seeded on 0.1% gelatin-coated twenty-four well tissue culture plate with a density of 20, 000 cells/cm^2, and cultured at 37° C. in a humidified, 5% CO2 incubator overnight in DMEM/Medium 199 (4/1) containing 10% FBS, 1% NEAAs and 1% P/S. […] A live/dead kit (Invitrogen) was for cell viability assay, and images were taken using inverted microscope fluorescence microscopy (Zeiss Axio Observer Z1) to determine the cell numbers and the percentage of dead cells. […]

Row | SMILES | viability at 20 µM [1] | fibroblast proliferation (cardiac fibroblasts) | optimal concentration to enhance EC proliferation [2] | EC proliferation ([2]; drugs in medium) | EC network formation [3] | myo-differentiation of cardiac fibroblasts [4] | proliferation of neonatal cardiomyocytes, times as many cells as the control (neonatal cardiomyocytes)
1 | Cc1cccc(-c2n[nH]cc2-c2ccc3ncccc3n2)n1 [R, 2-(3-(6-Methylpyridine-2-yl)-1H-pyrazol-4-yl)-1,5-naphthyridine] | 80% | opposite inhibitory effects | 20 µM | dose-dependent effects to enhance EC proliferation | not with R alone | could prevent myo-differentiation of cardiac fibroblasts | six
2 | C=C[C@@]1(C)CC(=O)[C@]2(O)[C@@]3(C)[C@@H](O)CCC(C)(C)[C@@H]3[C@H](O)[C@H](OC(C)=O)[C@@]2(C)O1 [F, Forskolin] | 80% | – | 20 µM | – | – | – | –
